Measurements published in article PMC12844335, “Cycloruthenated Imines: A Step into the Nanomolar Region” (Molecules, 2026).
Read-outs that look alike come from different tables or passages of the source.

Experiments:
[1] = tested on: A2780 human ovarian carcinoma cell line; test: MTT antiproliferative assay, A2780; format: cell-based; settings: mean ± SD of three independent experiments, read-out: IC50 (72 h) А2780
Procedure: (§1) The in vitro antiproliferative activity of the synthesized Ru-organometallic compounds and several starting ligands was evaluated against three human cell lines using the MTT assay. We selected a small panel of cell lines that provided insights into the efficacy and potential therapeutic utility of the compounds. The panel includes the A2780 human ovarian carcinoma cell line, which is sensitive to cisplatin, its cisplatin-resistant counterpart, A2780cis, also a non-malignant human embryonic kidney cell line, HEK293. The use of A2780 and A2780cis paired cell lines allowed us to directly assess the ability of the compounds to overcome resistance mechanisms. The inclusion of the HEK293 cell line can give us preliminary indication of selectivity against non-cancerous cells. Cisplatin, a clinically used drug, was used as a positive control in all experiments. All studies were performed in triplicate and repeated in three independent experiments.
(§2) The human A2780 ovarian adenocarcinoma, A2780cis cisplatin resistant ovarian adenocarcinoma, HEK293 human embryonic kidney cell lines were obtained from the European collection of authenticated cell cultures (ECACC; Salisbury, UK). Cells were grown in a RPMI 1640 (Gibco™, Cork, Ireland) cell medium (A2780, A2780cis), or DMEM (Gibco™, Ireland) cell medium (HEK293) supplemented with 10% fetal bovine serum (Gibco™, São Paulo, Brazil). The cells were cultured in an incubator at 37 °C in a humidified 5% CO2 atmosphere and were subcultured two times a week. The antiproliferative activity was studied by MTT assays as published previously [38].

[2] = tested on: A2780cis cisplatin resistant ovarian adenocarcinoma; test: MTT antiproliferative assay, A2780cis; format: cell-based, human; settings: for Rf resistance coefficient: IC50 on A2780cis divided on IC50 on A2780; for IC50: MTT, 72 h incubation, mean ± SD of three independent experiments;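 for all read-outs here: antiproliferative MTT assay with 72 h exposure on cisplatin-resistant A2780cis versus parent A2780 cells, cisplatin as positive control, triplicate wells in each of three independent experiments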
Procedure: as §1, §2

[3] = tested on: HEK293 human embryonic kidney cell line; test: MTT antiproliferative assay, HEK293; format: cell-based; settings: for Selectivity Index, SI: IC50 on HEK293 divided on IC50 on A2780; for IC50: MTT, 72 h incubation, mean ± SD of three independent experiments;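 for all read-outs here: cells grown at 37 °C under humidified 5% CO2, cisplatin run alongside as positive control, each test in triplicate wells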
Procedure: as §1, §2

[4] = Homo sapiens, A2780, 72 h incubation

SMILES	IC50 ([1]; 72 h incubation)	Rf resistance coefficient [2]	Selectivity Index, SI [3]	IC50 [3]	IC50 [1, 4]	IC50 ([2]; Homo sapiens, A2780cis)	IC50 ([3]; Homo sapiens, HEK293)	IC50 [2]
N.N.[Cl][Pt][Cl] [Cisplatin, reference compound]	2640 ± 350 nM	5.9	8.3	22000 nM	–	–	–	–
Fc1ccc(/N=C/c2ccccc2)cc1 [Compound 1b]	–	–	–	–	> 200000 nM	> 100000 nM	21600 nM	–
CCOC(=O)c1ccc(/N=C/c2ccccc2)cc1 [Compound 1g]	–	–	–	–	42100 nM	> 100000 nM	25400 nM	–
C1=[N+](c2ccccc2)[Ru-4]23([c]4ccccc41)([n+]1ccccc1-c1cccc[n+]12)[n+]1ccccc1-c1cccc[n+]13.F[P-](F)(F)(F)(F)F [Compound 3a, Bis(2,2′-bipiridine)[N-((phenyl-κC^2)methyliden]aniline-κN]ruthenium(II) hexafluorophosphate]	33 ± 7 nM	0.9	1.6	53 ± 4 nM	–	–	–	30 ± 10 nM
F[P-](F)(F)(F)(F)F.Fc1ccc([N+]2=Cc3cccc[c]3[Ru-4]234([n+]2ccccc2-c2cccc[n+]23)[n+]2ccccc2-c2cccc[n+]24)cc1 [Compound 3b, Bis(2,2′-bipiridine)[N-((phenyl-κC^2)methyliden]-4-fluoroaniline-κN]ruthenium(II) hexafluorophosphate]	90 ± 30 nM	2.8	1.1	100 ± 30 nM	–	–	–	250 ± 60 nM
Cc1ccc([N+]2=Cc3cccc[c]3[Ru-4]234([n+]2ccccc2-c2cccc[n+]23)[n+]2ccccc2-c2cccc[n+]24)cc1.F[P-](F)(F)(F)(F)F [Compound 3c, Bis(2,2′-bipiridine)[N-((phenyl-κC^2)methyliden]-4-methylaniline-κN]ruthenium(II) hexafluorophosphate]	70 ± 6 nM	1.7	1.0	70 ± 10 nM	–	–	–	120 ± 10 nM
CCc1ccc([N+]2=Cc3cccc[c]3[Ru-4]234([n+]2ccccc2-c2cccc[n+]23)[n+]2ccccc2-c2cccc[n+]24)cc1.F[P-](F)(F)(F)(F)F [Compound 3d, Bis(2,2′-bipiridine)[N-((phenyl-κC^2)methyliden]-4-ethylaniline-κN]ruthenium(II) hexafluorophosphate]	45 ± 5 nM	3.3	1.8	80 ± 10 nM	–	–	–	150 ± 10 nM
CC(C)(C)c1ccc([N+]2=Cc3cccc[c]3[Ru-4]234([n+]2ccccc2-c2cccc[n+]23)[n+]2ccccc2-c2cccc[n+]24)cc1.F[P-](F)(F)(F)(F)F [Compound 3e, Bis(2,2′-bipiridine)[N-((phenyl-κC^2)methyliden]-4-(tert-butyl)aniline-κN]ruthenium(II) hexafluorophosphate]	70 ± 30 nM	2.4	1.0	68 ± 6 nM	–	–	–	170 ± 30 nM
COc1ccc([N+]2=Cc3cccc[c]3[Ru-4]234([n+]2ccccc2-c2cccc[n+]23)[n+]2ccccc2-c2cccc[n+]24)cc1.F[P-](F)(F)(F)(F)F [Compound 3f, Bis(2,2′-bipiridine)[N-((phenyl-κC^2)methyliden]-4-methoxyaniline-κN]ruthenium(II) hexafluorophosphate]	65 ± 4 nM	1.8	1.0	64 ± 7 nM	–	–	–	120 ± 40 nM
CCOC(=O)c1ccc([N+]2=Cc3cccc[c]3[Ru-4]234([n+]2ccccc2-c2cccc[n+]23)[n+]2ccccc2-c2cccc[n+]24)cc1.F[P-](F)(F)(F)(F)F [Compound 3g, Bis(2,2′-bipiridine)[N-((phenyl-κC^2)methyliden]-4-ethoxycarbonylaniline-κN]ruthenium(II) hexafluorophosphate]	100 ± 20 nM	2.3	1.4	140 ± 20 nM	–	–	–	230 ± 20 nM
F[P-](F)(F)(F)(F)F.O=[N+]([O-])c1ccc([N+]2=Cc3cccc[c]3[Ru-4]234([n+]2ccccc2-c2cccc[n+]23)[n+]2ccccc2-c2cccc[n+]24)cc1 [Compound 3h, Bis(2,2′-bipiridine)[N-((phenyl-κC^2)methyliden]-4-nitroaniline-κN]ruthenium(II) hexafluorophosphate]	250 ± 30 nM	3.0	1.5	370 ± 80 nM	–	–	–	760 ± 80 nM
FC(F)(F)c1ccc([N+]2=Cc3cccc[c]3[Ru-4]234([n+]2ccccc2-c2cccc[n+]23)[n+]2ccccc2-c2cccc[n+]24)cc1.F[P-](F)(F)(F)(F)F [Compound 3i, Bis(2,2′-bipiridine)[N-((phenyl-κC^2)methyliden]-4-(trifluoromethyl)aniline-κN]ruthenium(II) hexafluorophosphate]	80 ± 10 nM	3.0	1.3	107 ± 8 nM	–	–	–	240 ± 20 nM
F[P-](F)(F)(F)(F)F.Fc1ccc([N+]2=Cc3scc[c]3[Ru-4]234([n+]2ccccc2-c2cccc[n+]23)[n+]2ccccc2-c2cccc[n+]24)cc1 [Compound 3j, Bis(2,2′-bipiridine)[N-((thiophene-2-yl-κC^2)methyliden]-4-fluoroaniline-κN]ruthenium(II) hexafluorophosphate]	43 ± 3 nM	2.1	1.4	60 ± 10 nM	–	–	–	91 ± 9 nM
Cc1ccc([N+]2=Cc3scc[c]3[Ru-4]234([n+]2ccccc2-c2cccc[n+]23)[n+]2ccccc2-c2cccc[n+]24)cc1.F[P-](F)(F)(F)(F)F [Compound 3k, Bis(2,2′-bipiridine)[N-((thiophene-2-yl-κC^2)methyliden]-4-methylaniline-κN]ruthenium(II) hexafluorophosphate]	30 ± 2 nM	0.3	2.3	70 ± 30 nM	–	–	–	10 ± 0.4 nM
COc1ccc([N+]2=Cc3scc[c]3[Ru-4]234([n+]2ccccc2-c2cccc[n+]23)[n+]2ccccc2-c2cccc[n+]24)cc1.F[P-](F)(F)(F)(F)F [Compound 3l, Bis(2,2′-bipiridine)[N-((thiophene-2-yl-κC^2)methyliden]-4-methoxyaniline-κN]ruthenium(II) hexafluorophosphate]	39 ± 3 nM	1.0	1.0	40 ± 10 nM	–	–	–	39 ± 10 nM
CCOC(=O)c1ccc([N+]2=Cc3scc[c]3[Ru-4]234([n+]2ccccc2-c2cccc[n+]23)[n+]2ccccc2-c2cccc[n+]24)cc1.F[P-](F)(F)(F)(F)F [Compound 3m, Bis(2,2′-bipiridine)[N-((thiophene-2-yl-κC^2)methyliden]-4-ethoxycarbonylaniline-κN]ruthenium(II) hexafluorophosphate]	57 ± 20 nM	1.5	2.5	140 ± 10 nM	–	–	–	84 ± 12 nM
F[P-](F)(F)(F)(F)F.O=[N+]([O-])c1ccc([N+]2=Cc3scc[c]3[Ru-4]234([n+]2ccccc2-c2cccc[n+]23)[n+]2ccccc2-c2cccc[n+]24)cc1 [Compound 3n, Bis(2,2′-bipiridine)[N-((thiophene-2-yl-κC^2)methyliden]-4-nitroaniline-κN]ruthenium(II) hexafluorophosphate]	270 ± 4 nM	3.6	2.0	530 ± 30 nM	–	–	–	960 ± 100 nM
FC(F)(F)c1ccc([N+]2=Cc3scc[c]3[Ru-4]234([n+]2ccccc2-c2cccc[n+]23)[n+]2ccccc2-c2cccc[n+]24)cc1.F[P-](F)(F)(F)(F)F [Compound 3o, Bis(2,2′-bipiridine)[N-((thiophene-2-yl-κC^2)methyliden]-4-(trifluoromethyl)aniline-κN]ruthenium(II) hexafluorophosphate]	96 ± 3 nM	–	1.7	160 ± 30 nM	–	–	–	150 ± 5 nM
